Assay results published in patent US20060052600A1, “Amino-functional chalcones” (priority 2002, published 2006).
≈ marks a conversion by molar mass, not a printed value. Where two headings read alike, the source gives them in different places.

How the values were obtained:
[1] = system: panel of non-fastidious bacteria (Gram-positive pathogens and Eschericia coli); assay: Activity against non-fastidious bacteria (panel, results in words)
[2] = Determination of solubility; assay type: physicochemical
Protocol: Solubility of the compounds was determined by preparing a saturated solution of compound in 0.3 M phosphate buffer (pH 7.4±0.3) in a brown glass tube. The suspensions were rotated slowly for 24 hours. Aliquots were centrifuged for 10 minutes at 14.000 rpm and supernatants were diluted in 40% (v/v) acetonitrile in water prior to HPLC analysis. Concentrations of analytes were quantified against a standard curve and used as term of solubility.
The HPLC-UV method used for the assessment of solubility is the same as used in the in vitro metabolism assay.

L. major promastigotes = assay: Leishmania promastigote assay; conditions: read-out: IC50, effect on L. major
[3] = system: Plasmodium falciparum 3D7; assay: Plasmodium falciparum assay; assay type: cell-based
[4] = system: DHODH (dihydroorotate dehydrogenase); assay: DHODH assay; assay type: biochemical; conditions: test concentration not given
[5] = system: Enterococcus faecalis ATCC29212; assay: MIC determination in broth microdilution assay
[6] = system: Staphylococcus aureus ATCC29213; assay: MIC determination in broth microdilution assay
[7] = Determination of metabolic stability (liver microsomes); assay type: in vitro ADME, rat; conditions: for Metabolic turn-over (rat) in vitro: 20 μM, 15 min, 37° C.
Protocol: Samples were incubated for 15 min at 37° C. and the reactions were terminated by addition of equal volumes of acetonitrile. Blank incubations were performed at the same concentration but without addition of microsomes. Both blank and microsome-containing samples were made in […] of three. […] The fraction of compound metabolised during the 15 min of incubation was determined by comparison of blank and microsome-containing samples using a Waters Alliance 2690 separation module and Waters 996 PDA-detector (Waters. […] This was followed by a 5 minutes linear gradient to initial conditions, which were maintained for 5 min. The flow rate was 0.20 ml/min and injection volume 10 μl.

Pharmacokinetic studies = assay type: in vivo, mice
From the text: Samples of serum were taken at defined timepoints.
The supernatant was used for the analysis.

Eschericia coli ESS = assay: MIC determination in broth microdilution assay
[8] = system: Staphylococcus aureus ATCC33591 (resistant to methicillin); assay: MIC determination in broth microdilution assay
[9] = system: Enterococcus faecium #17501 (vancomycin-resistant clinical isolate); assay: MIC determination in broth microdilution assay
[10] = system: Staphylococcus intermedius #2357 (clinical isolate); assay: MIC determination in broth microdilution assay
[11] = system: Streptococcus pneumoniae #998 (clinical isolate); assay: MIC determination in broth microdilution assay
S. aureus ATCC29213 = assay: Killing curve determination (time-kill curve); assay type: cell-based, Staphylococcus aureus; conditions: for bactericidal or bacteriostatic action (time-kill curve): CFU per ml at concentrations above the MIC; for MIC: S. aureus ATCC29213
[12] = system: panel of anaerobic bacteria (Bacteroides fragilis, Clostridium perfringens, Clostridium difficele); assay type: cell-based; conditions: single concentration 100 μM
[13] = system: Eschericia coli ATCC25922; assay: MIC determination in broth microdilution assay
Plasmodium berghei K173 [14] = assay: Multiple intra venous administration in Plasmodium berghei K173 infected NMRI female mice; assay type: in vivo; conditions: FIG. 7
Protocol: The doses stated were administered intra venously as solutions in a suitable vehicle.

Plasmodium berghei K173 [15] = assay: Multiple oral administrations in Plasmodium berghei K173 infected NMRI female mice; assay type: in vivo; conditions: FIG. 8
[16] = system: Plasmodium falciparum DD2 (Cq-res); assay: Plasmodium falciparum assay, resistant strain; assay type: cell-based; conditions: DD2, read-out: Plasmodium falciparum IC50, DD2 (Cq-res)
[17] = system: Plasmodium falciparum 7G8(Cq-res); assay: Plasmodium falciparum assay, resistant strain; assay type: cell-based; conditions: 7G8, read-out: Plasmodium falciparum IC50, 7G8(Cq-res)
[18] = system: Plasmodium falciparum K1(Cq-res); assay: Plasmodium falciparum assay, resistant strain; assay type: cell-based; conditions: K1, read-out: Plasmodium falciparum IC50, K1(Cq-res)
[19] = Table 2, read-out: IC50, activity against Plasmodium falciparum 3D7

COc1ccc(C(=O)/C=C/c2ccccc2)cc1 [4′MC, 4′methoxy chalcone, reference compound]
antibacterial effect [1]: no antibacterial effect at all | solubility at 24 h ([2]; 0.3 M phosphate buffer, pH 7.4, aqueous buffer, thermodynamic from solid): < 50 µg/mL | IC50 (L. major promastigotes; Leishmania major): 5600 nM | IC50 ([3]; Plasmodium falciparum, 3D7, Table 2, read-out: IC50, activity against Plasmodium falciparum 3D7): 40000 nM | Inhibition of DHODH [4]: 7%

COc1ccc(-c2ccccc2)cc1/C=C/C(=O)c1cccc(CN(C)C)c1 [A100, (E)-1-(3-Dimethylaminomethyl-phenyl)-3-(4-methoxy-biphenyl-3-yl)-propenone]
IC50 (L. major promastigotes): 200 nM

C=CC(C)(C)c1cc(/C=C/C(=O)c2ccc(O)cc2)c(OC)cc1O [LicA, Licochalcone A, reference compound]
activity against Gram-negative bacterium Eschericia coli [1]: only modest or no activity | activity against common pathogenic Gram-positive non-fastidious bacteria ([1]; also against antibiotic resistant bacteria): moderate bactericidal activity | MIC, D: Enterococcus faecalis ATCC29212 [5]: 37.5 µM (≈ 12.7 µg/mL) | aqueous solubility ([2]; pH 7.4): approximately 0.01 mg/ml | MIC, A: Staphylococcus aureus ATCC29213 [6]: 37.5 µM (≈ 12.7 µg/mL) | IC50 (L. major promastigotes): 4600 nM | IC50 [3, 19]: 6400 nM | metabolic turn-over in vitro [7]: 100% | Metabolic turn-over (rat) in vitro [7]: 100% | t½ in vivo (Pharmacokinetic studies; in vivo, species not given): 10 min | MIC, H: Eschericia coli ESS (Eschericia coli ESS): 300.0 µM (≈ 102 µg/mL) | MIC, B: Staphylococcus aureus ATCC33591 [8]: 37.5 µM (≈ 12.7 µg/mL) | MIC, E: Enterococcus faecium #17501 [9]: 37.5 µM (≈ 12.7 µg/mL) | Inhibition of DHODH [4]: 25% | MIC, C: Staphylococcus intermedius #2357 [10]: 37.5 µM (≈ 12.7 µg/mL) | MIC, F: Streptococcus pneumoniae #998 [11]: 75.0 µM (≈ 25.4 µg/mL)

CCCCN(CCCC)c1ccc(/C=C/C(=O)c2ccccc2CN2CCN(C)CC2)cc1 [A031, (E)-3-(4-Dibutylamino-phenyl)-1-[2-(4-methyl-piperazin-1-ylmethyl)-phenyl]-propenone]
activity against the ESS strain of E. coli (Eschericia coli ESS): considerable activity | bactericidal or bacteriostatic action (time-kill curve) (S. aureus ATCC29213): bactericidal | MIC (S. aureus ATCC29213): 9.4 µM (≈ 4.21 µg/mL)

CN(C)CCN(C)Cc1ccccc1C(=O)/C=C/c1ccc(Cl)cc1Cl [A038, (E)-3-(2,4-Dichloro-phenyl)-1-(2-{[(2-dimethylamino-ethyl)-methyl-amino]-methyl}-phenyl)-propenone]
activity against anaerobic bacteria [12]: activity against all microorganisms within the test panel | IC50 (L. major promastigotes): 800 nM | Inhibition of DHODH [4]: 22%

COc1ccc(-c2ccccc2)cc1/C=C/C(=O)c1ccc(CCN(C)C)cc1 [A117, (E)-1-[4-(2-Dimethylamino-ethyl)-phenyl]-3-(4-methoxy-biphenyl-3-yl)-propenone]
MIC, D: Enterococcus faecalis ATCC29212 [5]: 37.5 µM (≈ 14.5 µg/mL) | MIC, A: Staphylococcus aureus ATCC29213 [6]: 9.4 µM (≈ 3.62 µg/mL) | MIC, H: Eschericia coli ESS (Eschericia coli ESS): 9.4 µM (≈ 3.62 µg/mL) | MIC, B: Staphylococcus aureus ATCC33591 [8]: 9.4 µM (≈ 3.62 µg/mL) | MIC, E: Enterococcus faecium #17501 [9]: 37.5 µM (≈ 14.5 µg/mL) | MIC, G: Eschericia coli ATCC25922 [13]: 150 µM (≈ 57.8 µg/mL) | MIC, C: Staphylococcus intermedius #2357 [10]: 9.4 µM (≈ 3.62 µg/mL) | MIC, F: Streptococcus pneumoniae #998 [11]: 37.5 µM (≈ 14.5 µg/mL)

CN(C)CCCNCc1cccc(C(=O)/C=C/c2ccc(Cl)cc2Cl)c1 [A022, (E)-3-(2,4-Dichloro-phenyl)-1-{3-[(3-dimethylamino-propylamino)-methyl]-phenyl}-propenone]
MIC, D: Enterococcus faecalis ATCC29212 [5]: 18.8 µM (≈ 7.36 µg/mL) | MIC, A: Staphylococcus aureus ATCC29213 [6]: 37.5 µM (≈ 14.7 µg/mL) | MIC, H: Eschericia coli ESS (Eschericia coli ESS): 18.8 µM (≈ 7.36 µg/mL) | MIC, B: Staphylococcus aureus ATCC33591 [8]: 37.5 µM (≈ 14.7 µg/mL) | MIC, E: Enterococcus faecium #17501 [9]: 18.8 µM (≈ 7.36 µg/mL) | MIC, G: Eschericia coli ATCC25922 [13]: 18.8 µM (≈ 7.36 µg/mL) | Inhibition of DHODH [4]: 28% | MIC, C: Staphylococcus intermedius #2357 [10]: 37.5 µM (≈ 14.7 µg/mL) | MIC, F: Streptococcus pneumoniae #998 [11]: 18.8 µM (≈ 7.36 µg/mL)

CN(C)Cc1cccc(/C=C/C(=O)c2ccccc2CN(C)C)c1 [A066, (E)-3-(3-Dimethylaminomethyl-phenyl)-1-(2-dimethylaminomethyl-phenyl)-propenone]
Solubility in aqueous buffer at pH 7.4 ([2]; 0.3 M phosphate buffer, 24 hours): 7.4 mg/ml | IC50 [3, 19]: 900 nM

CN(Cc1ccccc1C(=O)/C=C/c1ccc(Cl)cc1Cl)C(C)(C)C [A035, (E)-1-{2-[(tert-Butyl-methyl-amino)-methyl]-phenyl}-3-(2,4-dichloro-phenyl)-propenone]
IC50 [3, 19]: 900 nM | Inhibition of DHODH [4]: 26%

CN(C)Cc1ccccc1C(=O)/C=C/c1ccc(Cl)cc1Cl [A027, (E)-3-(2,4-Dichloro-phenyl)-1-(2-dimethylaminomethyl-phenyl)-propenone]
parasitaemia, multiple intra venous administrations (Plasmodium berghei K173 [14]): significant decrease in the parasitaemia | parasitaemia, multiple oral administrations (Plasmodium berghei K173 [15]): significant decrease in the parasitaemia

CCN(CC)CCCC(C)Nc1ccnc2cc(Cl)ccc12 (stereo not shown) [Chloroquine]
IC50 [16]: 1000 nM | IC50 [17]: 1090 nM | IC50 ([3]; Plasmodium falciparum, 3D7, read-out: Plasmodium falciparum IC50, 3D7(Cq-sen)): 130 nM | IC50 [18]: > 1560 nM

CCCCN(CCCC)c1ccc(/C=C/C(=O)c2cccc(CN(C)C)c2)cc1 [A019, (E)-3-(4-Dibutylamino-phenyl)-1-(3-dimethylaminomethyl-phenyl)-propenone]
potency against Gram-positive pathogens in comparison with Licochalcone A ([1]; Gram-positive pathogens): increased potency | MIC, D: Enterococcus faecalis ATCC29212 [5]: 9.4 µM (≈ 3.69 µg/mL) | MIC, A: Staphylococcus aureus ATCC29213 [6]: 9.4 µM (≈ 3.69 µg/mL) | Metabolic turn-over (rat) in vitro [7]: 5% | MIC, H: Eschericia coli ESS (Eschericia coli ESS): 18.8 µM (≈ 7.38 µg/mL) | activity against the ESS strain of E. coli (Eschericia coli ESS): considerable activity | MIC, B: Staphylococcus aureus ATCC33591 [8]: 9.4 µM (≈ 3.69 µg/mL) | bactericidal or bacteriostatic action (time-kill curve) (S. aureus ATCC29213): bactericidal | MIC (S. aureus ATCC29213): 9.4 µM (≈ 3.69 µg/mL) | dependence of the bactericidal action (S. aureus ATCC29213; time-kill curve): primarily dependent on incubation time | MIC, E: Enterococcus faecium #17501 [9]: 9.4 µM (≈ 3.69 µg/mL) | MIC, C: Staphylococcus intermedius #2357 [10]: 9.4 µM (≈ 3.69 µg/mL) | MIC, F: Streptococcus pneumoniae #998 [11]: 18.8 µM (≈ 7.38 µg/mL)

CCN(CC)Cc1cccc(C(=O)/C=C/c2ccc(Cl)cc2Cl)c1 [A063, (E)-3-(2,4-Dichloro-phenyl)-1-(3-diethylaminomethyl-phenyl)-propenone]
activity against anaerobic bacteria [12]: activity against all microorganisms within the test panel | IC50 (L. major promastigotes): 900 nM

C=CC(C)(C)c1ccc(OC)c(/C=C/C(=O)c2ccccc2CN(C)C)c1 [A034, (E)-3-[5-(1,1-Dimethyl-allyl)-2-methoxy-phenyl]-1-(2-dimethylaminomethyl-phenyl)-propenone]
activity against anaerobic bacteria [12]: activity against all microorganisms within the test panel | IC50 (L. major promastigotes): 900 nM

O=C(/C=C/c1ccc(Cl)cc1Cl)c1ccccc1CN1CCNCC1 [A048, (E)-3-(2,4-Dichloro-phenyl)-1-(2-piperazin-1-ylmethyl-phenyl)-propenone]
bioavailability (Pharmacokinetic studies; mice): 34%
